{"source": "patent US20060183185A1", "about": "“Method for the synthesis of astaxanthin” (priority 2004, published 2006)", "origin": "cited, not measured here", "conditions": "liposome systems; appropriate dose", "data": [{"smiles": "CC1=C(/C=C/C(C)=C/C=C/C(C)=C/C=C/C=C(C)/C=C/C=C(C)/C=C/C2=C(C)C(=O)C(O)CC2(C)C)C(C)(C)CC(O)C1=O", "note": "(stereo not shown) [astaxanthin]", "values": [{"measurement": "suppression of the peroxyl radical chain reaction", "result": "completely suppress"}]}]}
